# Measured values as given in the OligoGym collection.
# Oligonucleotides are written 5' to 3', each unit as a sugar letter and its base; * is a phosphorothioate linkage, no mark a phosphodiester; rarer units and linkages stand in square brackets, end groups in braces. Plain capitals give the bases only. d = 2'-deoxy (DNA); r = 2'-OH (RNA)
# Biological target: UBE2B
# Assay: reporter assay of Huesken 2005
# Details: siRNA
# Also: test concentration or dose not given here.
row,Substance,normalised inhibition (eCFP-eYFP dual reporter) [%]
1,sense rArArArArGrArGrUrUrUrCrGrGrCrCrArUrUrGdTdT / antisense rCrArArUrGrGrCrCrGrArArArCrUrCrUrUrUrUdCdT,49.2
2,sense rArArArCrUrArGrUrArArUrArGrArArUrUrUrUdTdT / antisense rArArArArUrUrCrUrArUrUrArCrUrArGrUrUrUdAdA,47.5
3,sense rArArCrArArCrArUrCrArUrGrCrArGrUrGrGrAdTdT / antisense rUrCrCrArCrUrGrCrArUrGrArUrGrUrUrGrUrUdTdT,56.4

# Biological target: UBE2E3
# Assay: reporter assay of Huesken 2005
# Details: siRNA
row,Substance,normalised inhibition (eCFP-eYFP dual reporter) [%]
1,sense rUrArUrGrArArGrGrUrGrGrUrGrUrGrUrUrUrUdTdT / antisense rArArArArCrArCrArCrCrArCrCrUrUrCrArUrAdTdA,50.1
2,sense rUrArUrUrUrGrUrUrCrCrCrUrUrUrUrGrArCrAdTdT / antisense rUrGrUrCrArArArArGrGrGrArArCrArArArUrAdGdA,45.2
3,sense rUrCrArArCrArGrUrCrArGrGrGrArGrUrCrArUdTdT / antisense rArUrGrArCrUrCrCrCrUrGrArCrUrGrUrUrGrAdTdG,74.7
4,sense rUrCrArGrArArGrGrArGrCrUrArGrCrUrGrArAdTdT / antisense rUrUrCrArGrCrUrArGrCrUrCrCrUrUrCrUrGrAdAdT,87.4
5,sense rUrCrArGrArUrUrArUrCrCrArUrUrUrArArGrCdTdT / antisense rGrCrUrUrArArArUrGrGrArUrArArUrCrUrGrAdTdG,38.2
6,sense rUrCrArGrGrGrArGrUrCrArUrCrUrGrUrCrUrGdTdT / antisense rCrArGrArCrArGrArUrGrArCrUrCrCrCrUrGrAdCdT,49
7,sense rUrCrUrCrUrArGrCrArArArArCrCrArCrUrGrCdTdT / antisense rGrCrArGrUrGrGrUrUrUrUrGrCrUrArGrArGrAdGdT,35.9
8,sense rUrCrUrGrGrArUrArUrCrArCrArUrUrUrUrCrAdTdT / antisense rUrGrArArArArUrGrUrGrArUrArUrCrCrArGrAdAdA,68.8
9,sense rUrGrArArGrArArCrArArGrArGrGrArArArGrAdTdT / antisense rUrCrUrUrUrCrCrUrCrUrUrGrUrUrCrUrUrCrAdGdG,89.3
10,sense rUrGrArArUrGrGrArGrArUrCrArArCrUrArUrAdTdT / antisense rUrArUrArGrUrUrGrArUrCrUrCrCrArUrUrCrAdTdA,90.5
11,sense rUrGrCrGrGrArUrCrCrUrCrUrGrGrUrUrGrGrAdTdT / antisense rUrCrCrArArCrCrArGrArGrGrArUrCrCrGrCrAdGdG,75.8
12,sense rUrGrCrUrArArGrUrUrArUrCrCrArCrUrArGrUdTdT / antisense rArCrUrArGrUrGrGrArUrArArCrUrUrArGrCrAdGdT,82.8
13,sense rUrGrCrUrGrUrCrUrArUrUrUrGrUrUrCrCrCrUdTdT / antisense rArGrGrGrArArCrArArArUrArGrArCrArGrCrAdAdA,73.4
14,sense rUrGrUrCrUrArUrUrUrGrUrUrCrCrCrUrUrUrUdTdT / antisense rArArArArGrGrGrArArCrArArArUrArGrArCrAdGdC,86
15,sense rUrUrArUrCrCrArUrUrUrArArGrCrCrArCrCrAdTdT / antisense rUrGrGrUrGrGrCrUrUrArArArUrGrGrArUrArAdTdC,28.7
16,sense rUrUrCrCrGrCrArCrCrArGrArArUrCrUrArUrCdTdT / antisense rGrArUrArGrArUrUrCrUrGrGrUrGrCrGrGrArAdAdG,42.5
17,sense rUrUrUrUrGrArCrArGrArCrUrGrCrArArCrCrCdTdT / antisense rGrGrGrUrUrGrCrArGrUrCrUrGrUrCrArArArAdGdG,50.3
